Experimental data taken from paper PMC9841525, “Chemical Blockage of the Mitochondrial Rhomboid Protease PARL by Novel Ketoamide Inhibitors Reveals Its Role in PINK1/Parkin-Dependent Mitophagy” (Journal of Medicinal Chemistry, 2022).
*1 amine or outer side, *2 acyl side, *3 side chain or, on linkers, in order; H or OH if unused. Where a SMILES comes first, the peptide text is derived from it. [ ]: non-standard residue; d: D form. The star is where a group is joined. NH(4-phenylbutyl) = c1ccc(CCCCN*)cc1; X1 = C[C@H](N[*:1])C(=O)C(=O)[*:2]

Experiments:
PARL [1] = molecular target: T1, PARL (Homo sapiens, UniProt Q9H300); assay: PARL inhibition assay in cells: cleavage of overexpressed PGAM5-Myc by tetracycline-induced PARL-FLAG, immunoblot; assay type: cell-based; set-up: expressed in transfected cells; host or cells: Flp-In HEK293 T-REx PARL knockout cells
T1 sequence (Q9H300 53-379): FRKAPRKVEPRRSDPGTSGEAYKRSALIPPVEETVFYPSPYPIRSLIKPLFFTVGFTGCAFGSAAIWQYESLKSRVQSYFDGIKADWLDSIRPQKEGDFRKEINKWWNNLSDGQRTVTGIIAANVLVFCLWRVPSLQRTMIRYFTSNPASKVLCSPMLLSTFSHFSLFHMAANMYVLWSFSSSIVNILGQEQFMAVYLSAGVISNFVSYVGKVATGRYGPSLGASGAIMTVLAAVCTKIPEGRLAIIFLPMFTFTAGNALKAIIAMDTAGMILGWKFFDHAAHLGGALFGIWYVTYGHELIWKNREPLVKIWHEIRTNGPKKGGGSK
Description: PARL inhibition assays in cells were carried out in Flp-In HEK293 T-REx PARL knockout cells stably transfected with tetracycline inducible PARL-FLAG grown in DMEM (Gibco) supplemented with 10% (v/v) tetracycline-free fetal bovine serum (Clontech). For the inhibition assay, 0.7 × 10^6 cells were seeded per well of a 6-well plate, and the next day transfected with 5 μg of human PGAM5-Myc in pcDNA and 15 μg of branched polyethylenimine (Polysciences) per well. Four hours after transfection, the PARL expression was induced by adding tetracycline to 1 μg/mL. Eight hours after transfection, the inhibitors were added to each well in different concentrations in serum-free DMEM with 1% DMSO.
For immunoblot analysis of the effects of PARL inhibitors on PGAM5 cleavage, after overnight incubation with inhibitors, cells from each well were harvested in 1× SDS sample buffer containing 20 mM MgCl2 and Pierce universal nuclease (250 U/mL, Thermo Scientific) and heated to 65 °C for 10 min. Loading volumes for SDS-PAGE were adjusted by measuring total protein concentration in the lysates with Pierce 660 nm Protein Assay Reagent and Ionic Detergent Compatibility Reagent for Pierce 660 nm Protein Assay Reagent (Thermo Scientific). Samples were resolved by SDS-PAGE using a 12% polyacrylamide gel (Biorad) and electrotransferred onto an Immobilon PVDF membrane (Merck Millipore). Blots were blocked using casein blocker (Thermo Scientific) and hPGAM5 was labeled by rabbit anti-Myc antibody (Cell Signaling Technology, cat. #2278, dilution 1:1000) at 4 °C overnight. Blots were washed three times with TBS-T and incubated with IRDye 800 CW donkey anti-rabbit antibody (Invitrogen, cat. #SA5-10044, dilution 1:10,000) at room temperature for 2 h. Membranes were then again washed three times with TBS-T and one time with TBS. Fluorescence emission at […] of dried membranes was scanned on Odyssey CLx (LI-COR). Cleavage efficiency and inhibition were analyzed as described[23] using Image Studio Lite (LI-COR), Excel (Microsoft) and GraphPad Prism 9 (GraphPad Software, Inc.).

PARL [2] = molecular target: T1, PARL; assay: PARL inhibition in vitro, PARL in liposomes with substrate compound 4; assay type: biochemical; set-up: hexahistidine tag (C); made in house; host or cells: continuous-exchange cell-free expression in bacterial lysates with T7 polymerase (CUBE biotech), into liposomes
Description: Liposome preparation and cell-free protein expression of PARL were carried out essentially as described previously.[27] Liposomes resembling the lipid composition of the IMM were prepared by mixing 40% DOPC (1,2-dioleoyl-sn-glycero-3-phosphocholine), 33.8% DOPE (1,2-dioleoyl-sn-glycero-3-phosphoethanolamine), 18% CL(18:1)4 (1′,3′-bis[1,2-dioleyl-sn-glycero-3-phospho]-glycerol), 3% DOPS (1,2-dioleoyl-sn-glycero-3-phospho-L-serine), 5% soy-PI (L-α-phosphatidylinositol), and 0.2% rhodamine-PE (1,2-dioleoyl-sn-glycero-3-phosphoethanolamine-N-(lissamine rhodamine B sulfonyl)) in chloroform, followed by the evaporation of chloroform by a stream of nitrogen gas and drying in a vacuum chamber (Binder) for 1 h. Dried lipids were dissolved in buffer (5 mM Tris/HCl, pH 8.5, 10 mM KOAc) and extruded 21 times through a mini extruder (Avanti Polar Lipids) using a polycarbonate membrane with a pore size of […]. […] The PARL-containing liposomes were purified by a step-wise sucrose step-gradient centrifugation (0, 15, 30, and 40% sucrose in 5 mM HEPES pH 7.5 with 25 mM NaCl) for 2 h at 200,000 × g. Soluble proteoliposomes were harvested at the 0%/15% sucrose interface after the centrifugation. Concentration of PARL was determined by absorption at 280 nm.
PARL inhibition in vitro was measured in 5 mM Tris, 5 mM Mg(OAc)2, 25 μM Zn(OAc)2, 0.1 μg/μL BSA, 10% DMSO, pH 8.0 using PARL in liposomes at 0.07 mg/mL and compound 4 at 100 μM final concentration. Inhibitor concentrations were determined by quantitative amino acid analysis. Inhibitors in DMSO were dissolved at the respective concentrations into the reaction buffer by vigorous mixing at 1000 rpm, 37 °C for 40 min and then pre-incubated with PARL in liposomes at 37° for 1 h. The cleavage reaction was started by adding compound 4 and carried out at 37 °C in 96-well black HTS plates (Greiner Bio-One). Fluorescence was read in a plate reader (Tecan Infinite M1000) with excitation and emission wavelengths set to 355 and 450 nm, respectively. Data were evaluated using Excel (Microsoft) and GraphPad Prism 9 (GraphPad Software, Inc.). The data shown are representative of at least three independent experiments.

CC(=O)N[C@@H](C)C(=O)N[C@H](C(=O)N[C@@H](Cc1ccccc1)C(=O)N[C@@H](CC(C)C)C(=O)N[C@@H](C)C(=O)C(=O)NCCCCc1ccccc1)C(C)C [compound 5] (Ac-AVFL[X1]-{NH(4-phenylbutyl)})
IC50 (PARL [1]; Flp-In HEK293 T-REx PARL KO cells with inducible PARL-FLAG, PGAM5-Myc, mean ± SEM of four or three experiments, read-out: Apparent IC50, PGAM5 cleavage by overexpressed PARL): 410 nM | Fold better than compound 6 in cells (PARL [1]; ratio of apparent IC50 values, compound 5 vs compound 6): about 8 fold | Fold better than compound 6 in vitro (PARL [2]; ratio of IC50 values, compound 5 vs compound 6): about 3 fold | IC50 (PARL [2]; recombinant mature PARL in liposomes, 100 μM substrate compound 4, mean ± SEM of three or four measurements): 28 nM
